Assay results published in patent US20200397894A1, “COMPOSITIONS AND METHODS FOR TREATING CANCER” (University of Virginia Patent Foundation, priority 2016, published 2020).

Tests used:
Type in all cases: cell-based, human
[1] = system: Cal27 or FaDu cells; assay: FACS analysis of HNSCC cells (line not given)
Experimental: The effect of pevonedistat treatment or CDT2, geminin, or EMI1 knockdown on the cell cycle (and induction of DNA rereplication) was assessed by flow cytometry with propidium iodide (PI) staining. […] Cells were collected, washed with PBS, and resuspended in ethanol (75%). Cells were subsequently treated with 20 μg of DNase-free RNase and stained with PI following the manufacturer's protocol. FACSCAN™ (Becton, Dickinson and Company, Franklin Lakes, N.J., United States of America) was used to analyze the samples and G0-G1, S, and G2-M fractions were segmented. Subsequent analysis using FLOWJO® (FLOWJO, LLC, Ashland, Oreg., United States of America) and ModFit (Verity Software House, Topsham, Me., United States of America) software was used to determine apoptotic and re-replicating fractions. Where indicated, Cal27 and FaDu cells were treated with pevonedistat for 48 hours and pulsed with BrdU (10 nM) for 1 hour in the dark prior to harvesting. […] Sampled were analyzed on a FACSCAN™ (Becton, Dickinson and Company, Franklin Lakes, N.J., United States of America), and different fractions of BrdU positive cells were determined using FLOWJO® (FLOWJO, LLC, Ashland, Oreg., United States of America) and ModFit (Verity Software House, Topsham, Me., United States of America) software.

[2] = system: DM93 cells; assay: Cell cycle distribution and rereplication by propidium iodide staining and FACS; settings: for DM93 cells exhibiting >4N DNA content / Percent Cells in S and G2/M / Percent Cells in sub-G1: 1 μM pevonedistat; for Percent Cells in S and G2/M / Percent Cells in sub-G1 / Percent of Cells in S and G2/M / Percent of Cells in sub-G1: DM93 cells; for rereplication after transient exposure and washout: analyzed 48 hours later
Experimental: The effects of pevonedistat, vemurafenib, and/or silencing of various cell cycle-associated proteins by siRNA on cell cycle distribution and rereplication were assessed by propidium iodide staining and flow cytometry of asynchronous melanoma cultures. Synchronization of cells was not employed to avoid bias and to be able to measure the impact of these perturbations on proliferating cancer cells. […] Cells were washed with cold PBS, harvested, and fixed in 70% (v/v) ethanol. Cells were subsequently treated with 20 μg of DNase-free RNase and stained with propidium iodide according to instructions of the manufacturer. Samples were analyzed on a FACSCAN™ (Becton, Dickinson and Company, Franklin Lakes, N.J., United States of America) and G0-G1, S, and G2-M fractions were segmented, and apoptotic (sub-G1 DNA content) and rereplicating (>G2/M DNA content) fractions were determined using FLOWJO® (FLOWJO, LLC, Ashland, Oreg., United States of America) and ModFit (Verity Software House, Topsham, Me., United States of America) software.

[3] = system: DM331 cells; assay: Rereplication by propidium iodide staining and FACS; settings: DM331, 1 μM pevonedistat
Experimental: (§1) The effects of pevonedistat, vemurafenib, and/or silencing of various cell cycle-associated proteins by siRNA on cell cycle distribution and rereplication were assessed by propidium iodide staining and flow cytometry of asynchronous melanoma cultures. Synchronization of cells was not employed to avoid bias and to be able to measure the impact of these perturbations on proliferating cancer cells. Briefly, asynchronous melanoma cell lines were treated with pevonedistat or vemurafenib, or transfected with si-CDT1, si-CDT2, si-SET8, si-p21, sigeminin, si-EMI1, or si-GL2 for a time ranging from 24 to 96 hours. Cells were washed with cold PBS, harvested, and fixed in 70% (v/v) ethanol. Cells were subsequently treated with 20 μg of DNase-free RNase and stained with propidium iodide according to instructions of the manufacturer. Samples were analyzed on a FACSCAN™ (Becton, Dickinson and Company, Franklin Lakes, N.J., United States of America) and G0-G1, S, and G2-M fractions were segmented, and apoptotic (sub-G1 DNA content) and rereplicating (>G2/M DNA content) fractions were determined using FLOWJO® (FLOWJO, LLC, Ashland, Oreg., United States of America) and ModFit (Verity Software House, Topsham, Me., United States of America) software.

[4] = system: VMM39 cells; assay: as above; settings: VMM39, 1 μM pevonedistat
Experimental: as §1

[5] = system: SLM2 melanoma cells; assay: as above
Experimental: as §1

[6] = system: VMM1 cells; assay: as above
Experimental: as §1

[7] = 24 hours, 0.025 μM pevonedistat
[8] = 24 hours, 0.100 μM pevonedistat
[9] = 24 hours, 0.500 μM pevonedistat (first row so printed, r9)
[10] = 24 hours, 0.500 μM pevonedistat (r11)
[11] = 24 hours, 0.750 μM pevonedistat
[12] = 24 hours, 1.000 μM pevonedistat
[13] = 24 hours, 2.000 μM pevonedistat

Question: Which “cells exhibiting sub-G1 DNA content” value ([1]; 72 hours post-treatment) does the source give for `NS(=O)(=O)OCC1CC(n2ccc3c(NC4CCc5ccccc54)ncnc32)CC1O` [pevonedistat, ((1S,2S,4R)-4-(4-((1S)-2,3-Dihydro-H-inden-1-ylamino)-7H-pyrrolo(2,3-d)pyrimidin-7-yl)-2-hydroxycyclopentyl)methyl sulphamate] here?
Answer: The value was 5-10%.

Question: And the “concentration at which rereplication was also observed” value ([1]; as early as 24 hours following treatment)?
Answer: Its value is 40 nM.

Question: What about the “DM93 cells exhibiting >4N DNA content” value ([2]; by 72 hours of treatment) of the same compound?
Answer: The value was 68%.

Question: And the “DM93 cells exhibiting >4N DNA content” value ([2]; within 24 hours)?
Answer: The value was 18%.

Question: And the cells undergoing rereplication ([2]; DM93, 1 μM pevonedistat for 48 hours)?
Answer: Its cells undergoing rereplication is 45%.

Question: What about the “Percent of Cells in S and G2/M at 24 hours” value (shortened to “Percent … at 24 hours”) ([2]; DM93, 1 μM pevonedistat, 24 hours) of the same compound?
Answer: Its value is 27.2%.

Question: What about the “Percent of Cells in S and G2/M at 72 Hours” value (“Percent … at 72 Hours” for short) ([2]; DM93, 1 μM pevonedistat, 72 hours) of the same compound?
Answer: The value was 59.2%.

Question: And the cells undergoing rereplication ([2]; DM93, 72 hours post-treatment)?
Answer: The cells undergoing rereplication was 60%.

Question: And the “lowest drug concentration at which rereplication was observed” value ([2]; DM93, analyzed at 24 hours)?
Answer: The value was 500 nM.

Question: What about the “cells with sub-G1 DNA content” value ([2]; DM93, pevonedistat, 72 hours) of the same compound?
Answer: The value was roughly 7%.

Question: What about the “Percent Cells in S and G2/M” value ([2]; 3 hours) of the same compound?
Answer: Its value is 4.05%.

Question: And the “Percent Cells in sub-G1” value ([2]; 3 hours)?
Answer: Its value is 1.94%.

Question: What about the “Percent Cells in S and G2/M” value ([2]; 6 hours) of the same compound?
Answer: The value was 13%.

Question: What about the “Percent Cells in sub-G1” value ([2]; 6 hours) of the same compound?
Answer: Its value is 0.49%.

Question: What about the “Percent Cells in S and G2/M” value ([2]; 24 hours) of the same compound?
Answer: Its value is 17%.

Question: What about the “Percent Cells in sub-G1” value ([2]; 24 hours) of the same compound?
Answer: The value was 1.4%.

Question: What about the “Percent Cells in S and G2/M” value ([2]; 48 hours) of the same compound?
Answer: Its value is 64.7%.

Question: And the “Percent Cells in sub-G1” value ([2]; 48 hours)?
Answer: Its value is 2.08%.

Question: And the “Percent Cells in S and G2/M” value ([2]; 72 hours)?
Answer: Its value is 68.3%.

Question: What about the “Percent Cells in sub-G1” value ([2]; 72 hours) of the same compound?
Answer: Its value is 7.08%.

Question: And the “Percent of Cells in S and G2/M” value [2, 7]?
Answer: Its value is 0.57%.

Question: What about the “Percent of Cells in sub-G1” value [2, 7] of the same compound?
Answer: The value was 1.72%.

Question: What about the “Percent of Cells in S and G2/M” value [2, 8] of the same compound?
Answer: The value was 2.21%.

Question: What about the “Percent of Cells in sub-G1” value [2, 8] of the same compound?
Answer: The value was 5.62%.

Question: And the “Percent of Cells in S and G2/M” value [2, 9]?
Answer: Its value is 1.11%.

Question: And the “Percent of Cells in sub-G1” value [2, 9]?
Answer: The value was 1.61%.

Question: And the “Percent of Cells in S and G2/M” value [2, 10]?
Answer: Its value is 18.1%.

Question: What about the “Percent of Cells in sub-G1” value [2, 10] of the same compound?
Answer: Its value is 4.49%.

Question: And the “Percent of Cells in S and G2/M” value [2, 11]?
Answer: Its value is 47.4%.

Question: What about the “Percent of Cells in sub-G1” value [2, 11] of the same compound?
Answer: The value was 2.05%.

Question: What about the “Percent of Cells in S and G2/M” value [2, 12] of the same compound?
Answer: The value was 56.6%.

Question: What about the “Percent of Cells in sub-G1” value [2, 12] of the same compound?
Answer: The value was 1.21%.

Question: What about the “Percent of Cells in S and G2/M” value [2, 13] of the same compound?
Answer: Its value is 66%.

Question: What about the “Percent of Cells in sub-G1” value [2, 13] of the same compound?
Answer: Its value is 0.53%.

Question: And the “rereplication after transient exposure and washout” value ([2]; treated 12 hours)?
Answer: The value was 18%.

Question: What about the “rereplication after transient exposure and washout” value ([2]; treated 24 hours) of the same compound?
Answer: The value was 60%.

Question: And the “Percent … at 24 hours” value ([3]; 24 hours)?
Answer: Its value is 47.8%.

Question: And the “Percent … at 72 Hours” value ([3]; 72 hours)?
Answer: The value was 63.2%.

Question: What about the “Percent … at 24 hours” value ([4]; 24 hours) of the same compound?
Answer: Its value is 37.9%.

Question: And the “Percent … at 72 Hours” value ([4]; 72 hours)?
Answer: Its value is 33.8%.

Question: What about the “Percent … at 24 hours” value ([5]; SLM2, 1 μM pevonedistat, 24 hours) of the same compound?
Answer: The value was 46.8%.

Question: What about the “Percent … at 72 Hours” value ([5]; SLM2, 1 μM pevonedistat, 72 hours) of the same compound?
Answer: Its value is 50.2%.

Question: What about the cells with rereplication ([5]; SLM2, 72 hours post-treatment) of the same compound?
Answer: The cells with rereplication was “more than 58%”.

Question: And the “Percent … at 24 hours” value ([6]; VMM1, 1 μM pevonedistat, 24 hours)?
Answer: The value was 7.72%.

Question: What about the “Percent … at 72 Hours” value ([6]; VMM1, 1 μM pevonedistat, 72 hours) of the same compound?
Answer: The value was 30.8%.

Question: What about the cells undergoing rereplication ([6]; VMM1, 72 hours post-treatment) of the same compound?
Answer: The cells undergoing rereplication was 25%.
